Molecular target: T1, human recombinant PDE10A (Homo sapiens, UniProt Q9Y233)
T1 construct: made in house; host or cells: SF21 insect cells (baculovirus)
Assay: Inhibition of human recombinant PDE10A ([3H]-cAMP SPA, Method B)
Format: biochemical
Settings: read-out: PDE10 inhibition IC50 [nM] PDE10A human
Experimental: The gene was than inserted into a baculovirus vector, ligated with the baculovirus DNA. The enzyme-protein was expressed in SF21-cells. The enzyme was isolated from these cells by harvesting the cells by a centrifugation at 200 g to collect the cells. The cells were resuspended in 50 mM Tris-HCl/5 mM MgCl2 buffer (pH=7.4) and lysed by a sonication of the cells. The cytosolic PDE10A was obtained by a centrifugation at 48000 g for 1 h in the supernatant and stored at −70° C. PDE10 activity was determined in a one step procedure in microtiterplates. […] Nonspecific activity was tested without the enzyme. The reaction was initiated by addition of the substrate solution and was carried out at 37° C. for 30 minutes. Enzymatic activity was stopped by addition of 25 μl YSi-SPA-beads (Amersham-Pharmacia). One hour later the mixture was measured in a liquid scintillation counter for microtiterplates (Microbeta Trilux). To pipette the incubation mixture a robot Biomek (Fa. Beckman) is used. […] For determination of IC50 values the Hill-plot, 2-parameter-model, was used.

T1 sequence (Q9Y233 1-779 isoform Q9Y233-1): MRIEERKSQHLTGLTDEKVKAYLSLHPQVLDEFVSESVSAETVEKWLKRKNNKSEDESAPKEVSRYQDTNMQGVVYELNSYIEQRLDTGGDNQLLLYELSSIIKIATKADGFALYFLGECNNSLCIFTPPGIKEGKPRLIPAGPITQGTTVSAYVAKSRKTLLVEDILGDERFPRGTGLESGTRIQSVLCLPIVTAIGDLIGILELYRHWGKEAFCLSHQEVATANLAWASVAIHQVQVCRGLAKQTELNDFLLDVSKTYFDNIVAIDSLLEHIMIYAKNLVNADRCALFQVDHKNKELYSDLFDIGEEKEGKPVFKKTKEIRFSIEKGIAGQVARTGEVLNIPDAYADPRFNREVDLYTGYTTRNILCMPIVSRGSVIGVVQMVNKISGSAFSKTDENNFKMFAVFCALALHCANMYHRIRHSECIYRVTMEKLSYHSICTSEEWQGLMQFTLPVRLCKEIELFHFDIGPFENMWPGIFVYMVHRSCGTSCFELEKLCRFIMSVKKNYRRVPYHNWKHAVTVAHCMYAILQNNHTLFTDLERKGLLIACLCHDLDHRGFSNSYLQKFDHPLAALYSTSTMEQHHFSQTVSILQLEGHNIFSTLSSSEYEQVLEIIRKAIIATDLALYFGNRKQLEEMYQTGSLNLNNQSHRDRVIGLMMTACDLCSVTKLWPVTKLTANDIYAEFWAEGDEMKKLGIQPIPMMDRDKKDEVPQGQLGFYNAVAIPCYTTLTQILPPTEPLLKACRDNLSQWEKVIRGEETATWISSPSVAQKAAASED

| SMILES | IC50 [nM] |
| --- | --- |
| Cc1nc(-c2cc(C(N)=O)ccc2F)n2c1c(C)nc1ccccc12 [Example 102, 3-(3,4-dimethylimidazo[1,5-a]quinoxalin-1-yl)-4-fluorobenzamide] | 10 to 100 |
| Cc1nc(F)ccc1-c1nc(C)c2c(C)nc3ccccc3n12 [Example 103, 1-(6-fluoro-2-methylpyridin-3-yl)-3,4-dimethylimidazo[1,5-a]quinoxaline] | 10 to 100 |
| COc1ccc2nc(C)c3c(C)nc(-c4ccc(Cl)cc4C(F)(F)F)n3c2c1 [Example 106, 1-[4-chloro-2-(trifluoromethyl)phenyl]-8-methoxy-3,4-dimethylimidazo[1,5-a]quinoxaline] | 10 to 100 |
| COc1ccc2nc(C)c3c(C)nc(-c4cccc(C(N)=O)c4)n3c2c1 [Example 112, 3-(8-methoxy-3,4-dimethylimidazo[1,5-a]quinoxalin-1-yl)benzamide] | ≤ 10 |
| COc1ccc2nc(C)c3c(C)nc(-c4cc(C(N)=O)ccc4F)n3c2c1 [Example 114, 4-fluoro-3-(8-methoxy-3,4-dimethylimidazo[1,5-a]quinoxalin-1-yl)benzamide] | ≤ 10 |
| COc1ccc2nc(C)c3c(C)nc(-c4ccccc4C)n3c2c1 [Example 115, 8-methoxy-3,4-dimethyl-1-(2-methylphenyl)imidazo[1,5-a]quinoxaline] | ≤ 10 |
| Cc1ccccc1-c1nc(C)c2c(C)nc3ccc(OC(F)(F)F)cc3n12 [Example 118, 3,4-dimethyl-1-(2-methylphenyl)-8-(trifluoromethoxy)imidazo[1,5-a]quinoxaline] | ≤ 10 |
| Cc1nc(-c2cccc(C(N)=O)c2)n2c1c(C)nc1ccc(OC(F)(F)F)cc12 [Example 120, 3-[3,4-dimethyl-8-(trifluoromethoxy)imidazo[1,5-a]quinoxalin-1-yl]benzamide] | ≤ 10 |
| COc1ccncc1-c1nc(C)c2c(C)nc3ccc(C(F)(F)F)cc3n12 [Example 123, 1-(4-methoxypyridin-3-yl)-3,4-dimethyl-8-(trifluoromethyl)imidazo[1,5-a]quinoxaline] | 10 to 100 |
| Cc1ccccc1-c1nc(C)c2c(C)nc3ccc(C(F)(F)F)cc3n12 [Example 125, 3,4-dimethyl-1-(2-methylphenyl)-8-(trifluoromethyl)imidazo[1,5-a]quinoxaline] | 10 to 100 |
| COc1cc2nc(C)c3c(C)nc(-c4ccncc4C)n3c2cc1Cl [Example 127, 8-chloro-7-methoxy-3,4-dimethyl-1-(3-methylpyridin-4-yl)imidazo[1,5-a]quinoxaline] | ≤ 10 |
| COc1cc2nc(C)c3c(C)nc(-c4ccccc4Cl)n3c2cc1Cl [Example 129, 8-chloro-1-(2-chlorophenyl)-7-methoxy-3,4-dimethylimidazo[1,5-a]quinoxaline] | ≤ 10 |
| COc1cc2nc(C)c3c(C)nc(-c4cccnc4C)n3c2cc1Cl [Example 130, 8-chloro-7-methoxy-3,4-dimethyl-1-(2-methylpyridin-3-yl)imidazo[1,5-a]quinoxaline] | ≤ 10 |
| COc1cccc2c1nc(C)c1c(C)nc(-c3ccccc3C)n12 [Example 133, 6-Methoxy-3,4-dimethyl-1-(2-methylphenyl)imidazo[1,5-a]quinoxaline] | ≤ 10 |
| Cc1ccc(C(N)=O)cc1-c1nc(C)c2c(C)nc3ccc(F)cc3n12 [Example 134, 3-(8-fluoro-3,4-dimethylimidazo[1,5-a]quinoxalin-1-yl)-4-methylbenzamide] | 10 to 100 |
| Cc1nc(-c2cc(C(N)=O)ccc2F)n2c1c(C)nc1ccc(F)cc12 [Example 137, 4-fluoro-3-(8-fluoro-3,4-dimethylimidazo[1,5-a]quinoxalin-1-yl)benzamide] | 10 to 100 |
| Cc1nc(-c2cccnc2)n2c1c(C)nc1ccc(F)cc12 [Example 144, 8-fluoro-3,4-dimethyl-1-pyridin-3-ylimidazo[1,5-a]quinoxaline] | ≥ 100 |
| CCCc1nc(C)c2c(Cl)nc3ccc(OC)cc3n12 [Intermediate B1, 4-chloro-8-methoxy-3-methyl-1-propyl-imidazo[1,5-a]quinazoline] | 10 to 100 |

Now from value to compound:

| IC50 [nM] | SMILES |
| --- | --- |
| ≤ 10 | COc1ccc2nc(C)c3c(C)nc(-c4ccc(F)cc4Cl)n3c2c1 [Example 105, 1-(2-chloro-4-fluorophenyl)-8-methoxy-3,4-dimethylimidazo[1,5-a]quinoxaline] |
| ≤ 10 | COc1ccc2nc(C)c3c(C)nc(-c4cc(Cl)ccc4C)n3c2c1 [Example 107, 1-(5-chloro-2-methylphenyl)-8-methoxy-3,4-dimethylimidazo[1,5-a]quinoxaline] |
| 10 to 100 | COc1ccc2nc(C)c3c(C)nc(-c4ccc(F)cc4C)n3c2c1 [Example 108, 1-(4-fluoro-2-methylphenyl)-8-methoxy-3,4-dimethylimidazo[1,5-a]quinoxaline] |
| ≤ 10 | COc1ccc2nc(C)c3c(C)nc(-c4cccc(F)c4C)n3c2c1 [Example 109, 1-(3-fluoro-2-methylphenyl)-8-methoxy-3,4-dimethylimidazo[1,5-a]quinoxaline] |
| 10 to 100 | COc1ccc2nc(C)c3c(C)nc(-c4cnccc4OC)n3c2c1 [Example 110, 8-methoxy-1-(4-methoxypyridin-3-yl)-3,4-dimethylimidazo[1,5-a]quinoxaline] |
| 10 to 100 | COc1ccc2nc(C)c3c(C)nc(-c4ccc(F)nc4C)n3c2c1 [Example 113, 1-(6-fluoro-2-methylpyridin-3-yl)-8-methoxy-3,4-dimethylimidazo[1,5-a]quinoxaline] |
| 10 to 100 | Cc1nc(F)ccc1-c1nc(C)c2c(C)nc3ccc(OC(F)(F)F)cc3n12 [Example 117, 1-(6-fluoro-2-methylpyridin-3-yl)-3,4-dimethyl-8-(trifluoromethoxy)imidazo[1,5-a]quinoxaline] |
| ≤ 10 | COc1cc2nc(C)c3c(C)nc(-c4ccccc4C)n3c2cc1Cl [Example 126, 8-chloro-7-methoxy-3,4-dimethyl-1-(2-methylphenyl)imidazo[1,5-a]quinoxaline] |
| 10 to 100 | COc1cc2nc(C)c3c(C)nc(-c4cnccc4C)n3c2cc1Cl [Example 128, 8-chloro-7-methoxy-3,4-dimethyl-1-(4-methylpyridin-3-yl)imidazo[1,5-a]quinoxaline] |
| ≤ 10 | COc1cc2nc(C)c3c(C)nc(-c4c(C)nn(C)c4C)n3c2cc1Cl [Example 131, 8-chloro-7-methoxy-3,4-dimethyl-1-(1,3,5-trimethyl-1H-pyrazol-4-yl)imidazo[1,5-a]quinoxaline] |
| 10 to 100 | CCOc1cc2nc(C)c3c(C)nc(-c4ccccc4C)n3c2cc1Cl [Example 132, 8-Chloro-7-ethoxy-3,4-dimethyl-1-(2-methylphenyl)imidazo[1,5-a]quinoxaline] |
| 10 to 100 | Cc1nc(-c2ccc(F)c(C(N)=O)c2)n2c1c(C)nc1ccc(F)cc12 [Example 135, 2-fluoro-5-(8-fluoro-3,4-dimethylimidazo[1,5-a]quinoxalin-1-yl)benzamide] |
| 10 to 100 | Cc1nc(-c2cc(F)cc(C(N)=O)c2)n2c1c(C)nc1ccc(F)cc12 [Example 136, 3-fluoro-5-(8-fluoro-3,4-dimethylimidazo[1,5-a]quinoxalin-1-yl)benzamide] |
| ≥ 100 | Cc1nc(F)ccc1-c1nc(C)c2c(C)nc3ccc(F)cc3n12 [Example 139, 8-fluoro-1-(6-fluoro-2-methylpyridin-3-yl)-3,4-dimethylimidazo[1,5-a]quinoxaline] |
| ≥ 100 | COc1ccncc1-c1nc(C)c2c(C)nc3ccc(F)cc3n12 [Example 140, 8-fluoro-1-(4-methoxypyridin-3-yl)-3,4-dimethylimidazo[1,5-a]quinoxaline] |
| ≥ 100 | Cc1nc(-c2ccncc2)n2c1c(C)nc1ccc(F)cc12 [Example 143, 8-fluoro-3,4-dimethyl-1-pyridin-4-ylimidazo[1,5-a]quinoxaline] |

— patent US7875618B2, “Substituted imidazo[1,5-a]quinoxalines useful as inhibitors of phosphodiesterase 10 for the treatment of neurological and other disorders” (Wyeth, priority 2007, dated 2011)
